Laboratory results taken from patent US6943149B2, “Benzimidazolone peptidomimetics as thrombin receptor antagonists” (Ortho McNeil Pharmaceutical, Inc., priority 1999, dated 2005).

Assays:
[1] = test system: gel-filtered platelets (thrombin-stimulated aggregation); assay: Thrombin-induced gel-filtered platelet aggregation assay; type: cell-based; conditions: human platelets, read-out: IC50 (μM) Thr GFP Aggr
Protocol: In Vitro Inhibition of Thrombin-Induced Gel-Filtered Platelet Aggregation Assay
The percentage of platelet aggregation is calculated as an increase in light transmission of compound-treated platelet concentrate vs. control-treated platelet concentrate. Human blood is obtained from drug free, normal donors in tubes containing 0.13M sodium citrate. Platelet rich plasma (PRP) is collected by centrifugation of whole blood at 200×g for 10 min at 25° C. The PRP (5 mL) is gel filtered through Sepharose 2B (bed volume 50 mL), and the platelet count is adjusted to 2×10^7 platelets per sample. The following constituents are added to a siliconized cuvette: concentrated platelet filtrate and Tyrode's buffer (0.14M NaCl, 0.0027M KCl, 0.012M NaHCO3, 0.76 mM Na2HPO4, 0.0055M glucose, 2 mg/mL BSA and 5.0 mM HEPES @ pH 7.4) in an amount equal to 350 μL, 50 μL of 20 mM calcium and 50 μL of the test compound. Aggregation is monitored in a BIODATA aggregometer for the 3 min following the addition of agonist (thrombin 50 μL of 1 unit/mL).

[2] = molecular target: T1, Thrombin receptor (PAR-1) (Homo sapiens, UniProt P25116); assay: Thrombin receptor (PAR-1) binding assay; conditions: CHRF membranes; tritiated 721-40 radioligand; read-out: IC50 (μM) Thr recptr Bdg
T1 construct: CHRF membranes (Jones, Biochim. Biophys. Acta 1992, 1136, 272) are thawed from −70° C; endogenous in cells; host or cells: CHRF cell membranes
T1 sequence (P25116 22-425): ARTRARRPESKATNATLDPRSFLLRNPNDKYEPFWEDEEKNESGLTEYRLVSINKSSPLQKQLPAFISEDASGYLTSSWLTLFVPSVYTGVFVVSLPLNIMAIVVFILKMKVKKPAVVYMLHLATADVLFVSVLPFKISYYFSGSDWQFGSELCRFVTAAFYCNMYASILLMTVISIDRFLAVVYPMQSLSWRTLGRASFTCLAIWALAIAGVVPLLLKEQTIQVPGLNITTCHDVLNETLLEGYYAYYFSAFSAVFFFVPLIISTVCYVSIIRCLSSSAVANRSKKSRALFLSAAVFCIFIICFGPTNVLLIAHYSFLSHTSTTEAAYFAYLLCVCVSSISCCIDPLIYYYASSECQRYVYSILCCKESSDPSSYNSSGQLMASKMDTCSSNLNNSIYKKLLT
Protocol: In Vitro Thrombin Receptor Binding Assay
CHRF membranes (Jones, Biochim. Biophys. Acta 1992, 1136, 272) are thawed from −70° C., centrifuged at maximum speed for 5 min, washed twice with binding buffer (50 mM HEPES containing 5 mM MgCl2 and 0.1% BSA), and re-suspended in binding buffer ([…]). 100 μL of membranes are added to the 24-Wallac plates and delivered to the Tomtech apparatus. In a typical experiment, 6 μL of samples (from a 125 μg/mL intermediary plate, 20% DMSO) and 44 μL buffer are delivered to the plates (final conc. of compounds is 3.7 μg/mL, 0.6% DMSO). Similarly, 6 μL 20% DMSO and 44 μL buffer are delivered to both column 1 (NSB) and column 12 (TB). 10 μL Ser-pFPhe-Har-Leu-Har-Lys-Tyr-NH2, SEQ ID NO 1, (721-40; 500 μM in deionized water) is added to column 1. 50 μL tritiated 721-40 (specific activity 46 Ci/mmol) is added to all the wells. The plates are mixed well for 20 seconds, incubated for 30 min, and then harvested with 10 mM HEPES/138 mM NaCl using the Skatron harvester. The filters (GF/C Brandel FPXLR 296) are presoaked 3 h in 0.5% polyethylenimine in HEPES/0.1M N-acetylglucosamine) are set in saran wrap and dried for 3 min in the microwave, and placed in sample bags (Wallac 1450-432). 4.5 mL scintillation fluid (Wallac, Betaplate Scint 1205-440) is added. The bags are sealed, placed in filter cassettes (Wallac 1450-104), and analyzed on the microbeta counter.

| SMILES | IC50 [1] | IC50 [2] |
| --- | --- | --- |
| NCCNC(=O)[C@H](Cc1ccncc1)NC(=O)[C@H](Cc1ccc(F)c(F)c1)NC(=O)Nc1ccc2c(c1)n(Cc1ccc(F)cc1)c(=O)n2CCN1CCCC1 [Compound 8] | 5.8 µM | 0.5 µM |
| Cc1ccccc1Cn1c(=O)n(CCN2CCCC2)c2cc(NC(=O)N[C@@H](Cc3ccc(F)c(F)c3)C(=O)N[C@@H](CCN)C(=O)NCc3ccccc3)ccc21 [Compound 2] | 7 µM | 3 µM |
| NCC[C@H](NC(=O)[C@H](Cc1ccc(F)c(F)c1)NC(=O)Nc1ccc2c(c1)n(Cc1c(Cl)cccc1Cl)c(=O)n2CCN1CCCC1)C(=O)NCc1ccccc1 [Compound 1] | 0.39 µM | 1.6 µM |
| NCC[C@H](NC(=O)[C@H](Cc1ccc(F)c(F)c1)NC(=O)Nc1ccc2c(c1)n(CCN1CCCC1)c(=O)n2Cc1c(Cl)cccc1Cl)C(=O)NCc1ccccc1 [Compound 7] | 5.5 µM | 1.7 µM |
| NCC[C@H](NC(=O)[C@H](Cc1ccc(F)c(F)c1)NC(=O)Nc1ccc2c(c1)n(Cc1ccc(F)cc1)c(=O)n2CCN1CCCC1)C(=O)NCc1ccccc1 [Compound 6] | 6 µM | 0.6 µM |
| Cc1ccccc1Cn1c(=O)n(CCN(C)C)c2cc(NC(=O)N[C@@H](Cc3ccc(F)c(F)c3)C(=O)N[C@@H](CCN)C(=O)NCc3ccccc3)ccc21 [Compound 3] | 7.7 µM | 1.9 µM |
| Cc1ccccc1Cn1c(=O)n(CCN2CCCC2)c2ccc(NC(=O)N[C@@H](Cc3ccc(F)c(F)c3)C(=O)N[C@@H](CCN)C(=O)NCc3ccccc3)cc21 [Compound 5] | 0.28 µM | 0.4 µM |
| Cc1ccccc1Cn1c(=O)n(CCN(C)C)c2ccc(NC(=O)N[C@@H](Cc3ccc(F)c(F)c3)C(=O)N[C@@H](CCN)C(=O)NCc3ccccc3)cc21 [Compound 4] | 0.23 µM | 0.7 µM |
